Earlier results in patent US20080255200A1, “SUBSTITUTED BENZIMIDAZOLES” (AUSPEX PHARMACEUTICALS, INC., priority 2007, published 2008).

Target: gastric H^+, K^+-ATPase (Homo sapiens, UniProt P20648)
Settings: intragastric pH over 4, orally administered

Chain of gastric H^+, K^+-ATPase (P20648 whole entry): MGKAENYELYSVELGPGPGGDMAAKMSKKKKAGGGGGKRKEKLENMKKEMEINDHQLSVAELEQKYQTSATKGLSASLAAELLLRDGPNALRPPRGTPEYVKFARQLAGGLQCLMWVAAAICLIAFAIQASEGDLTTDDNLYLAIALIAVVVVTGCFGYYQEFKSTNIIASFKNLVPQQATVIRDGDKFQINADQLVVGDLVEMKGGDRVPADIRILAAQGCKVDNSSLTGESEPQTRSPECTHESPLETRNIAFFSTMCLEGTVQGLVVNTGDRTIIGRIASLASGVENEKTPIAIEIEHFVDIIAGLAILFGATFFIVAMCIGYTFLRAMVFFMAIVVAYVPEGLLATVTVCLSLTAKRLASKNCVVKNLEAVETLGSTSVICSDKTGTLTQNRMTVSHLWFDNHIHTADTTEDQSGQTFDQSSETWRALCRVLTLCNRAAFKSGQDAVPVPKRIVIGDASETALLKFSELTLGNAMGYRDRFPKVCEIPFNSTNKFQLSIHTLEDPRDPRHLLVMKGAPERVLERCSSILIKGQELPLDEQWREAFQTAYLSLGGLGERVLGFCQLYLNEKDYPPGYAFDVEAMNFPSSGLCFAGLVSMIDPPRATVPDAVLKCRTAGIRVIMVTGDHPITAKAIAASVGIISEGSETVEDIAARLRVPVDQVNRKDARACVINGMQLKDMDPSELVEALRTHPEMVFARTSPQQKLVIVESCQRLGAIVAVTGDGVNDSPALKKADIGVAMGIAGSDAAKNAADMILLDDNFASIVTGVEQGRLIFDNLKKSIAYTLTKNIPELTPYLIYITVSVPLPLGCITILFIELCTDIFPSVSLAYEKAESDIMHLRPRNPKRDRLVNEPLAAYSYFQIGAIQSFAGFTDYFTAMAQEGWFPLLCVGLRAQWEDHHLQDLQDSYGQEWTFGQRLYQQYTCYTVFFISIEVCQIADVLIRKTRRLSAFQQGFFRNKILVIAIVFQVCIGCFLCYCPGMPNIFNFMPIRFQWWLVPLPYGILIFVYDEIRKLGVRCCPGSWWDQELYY
Chain of gastric H^+, K^+-ATPase (P51164 whole entry partner): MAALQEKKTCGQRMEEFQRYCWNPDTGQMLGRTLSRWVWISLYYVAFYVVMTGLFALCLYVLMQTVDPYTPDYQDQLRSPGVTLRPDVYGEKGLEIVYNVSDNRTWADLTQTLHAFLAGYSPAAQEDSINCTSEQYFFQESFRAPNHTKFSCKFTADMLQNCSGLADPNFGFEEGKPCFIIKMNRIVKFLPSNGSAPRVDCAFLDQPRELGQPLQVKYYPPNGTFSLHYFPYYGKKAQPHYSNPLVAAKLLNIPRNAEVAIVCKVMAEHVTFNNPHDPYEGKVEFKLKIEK

average time intragastric pH is increased to over 4: 20.5 hours
Structure (SMILES): COc1ccnc(C[S+]([O-])c2nc3cc(-n4cccc4)ccc3[nH]2)c1C (stereo not shown) [Ilaprazole, 2-(4-methoxy-3-methyl-pyridin-2-ylmethanesulfinyl)-5-pyrrol-1-yl-1H-benzoimidazole]
